What was measured:
Experiment in all cases: relative viability (nuclei count vs DMSO), 5 days (fraction); higher = more cells survive
MK-2206 + Phenformin = compound: NC1(c2ccc(-c3nc4ccn5c(=O)[nH]nc5c4cc3-c3ccccc3)cc2)CCC1 [MK-2206] + N=C(N)NC(=N)NCCc1ccccc1 [Phenformin] (partner 250 µM)
Outline: (§1)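 Lung cancer cell lines in 1536-well plates got either a single drug or a fixed anchor-drug dose together with five library-drug doses (not always all listed) in √10 steps, by pin tool, on the day after seeding. Nuclei were counted after 5 days, and relative viability is the treated-to-vehicle ratio of nuclei counts. Values are medians of duplicate plates.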

Pictilisib + Dasatinib = compound: CS(=O)(=O)N1CCN(Cc2cc3nc(-c4cccc5[nH]ncc45)nc(N4CCOCC4)c3s2)CC1 [Pictilisib] + Cc1nc(Nc2ncc(C(=O)Nc3c(C)cccc3Cl)s2)cc(N2CCN(CCO)CC2)n1 [Dasatinib] (partner 0.075 µM)
Outline: as §1

Pictilisib + OSI-027 = compound: CS(=O)(=O)N1CCN(Cc2cc3nc(-c4cccc5[nH]ncc45)nc(N4CCOCC4)c3s2)CC1 [Pictilisib] + COc1cccc2cc(-c3nc([C@H]4CC[C@H](C(=O)O)CC4)n4ncnc(N)c34)[nH]c12 [OSI-027] (partner 0.5 µM)
Outline: as §1

MK-2206 + Trametinib = compound: NC1(c2ccc(-c3nc4ccn5c(=O)[nH]nc5c4cc3-c3ccccc3)cc2)CCC1 [MK-2206] + CC(=O)Nc1cccc(-n2c(=O)n(C3CC3)c(=O)c3c(Nc4ccc(I)cc4F)n(C)c(=O)c(C)c32)c1 [Trametinib] (partner 0.02 µM)
Outline: as §1

Pictilisib + Decitabine = compound: CS(=O)(=O)N1CCN(Cc2cc3nc(-c4cccc5[nH]ncc45)nc(N4CCOCC4)c3s2)CC1 [Pictilisib] + Nc1ncn([C@H]2C[C@H](O)[C@@H](CO)O2)c(=O)n1 [Decitabine] (partner 2 µM)
Outline: as §1

Row | Cell Line | relative viability (MK-2206 + Phenformin; first compound 0.01 µM) | relative viability (MK-2206 + Phenformin; first compound 0.03162 µM) | relative viability (MK-2206 + Phenformin; first compound 0.3162 µM) | relative viability (MK-2206 + Phenformin; first compound 1 µM) | relative viability (Pictilisib + Dasatinib; first compound 0.02 µM) | relative viability (Pictilisib + Dasatinib; first compound 0.06325 µM) | relative viability (Pictilisib + Dasatinib; first compound 0.6325 µM) | relative viability (Pictilisib + Dasatinib; first compound 2 µM) | relative viability (Pictilisib + OSI-027; first compound 0.02 µM) | relative viability (Pictilisib + OSI-027; first compound 0.06325 µM) | relative viability (Pictilisib + OSI-027; first compound 0.6325 µM) | relative viability (Pictilisib + OSI-027; first compound 2 µM) | relative viability (MK-2206 + Trametinib; first compound 0.01 µM) | relative viability (MK-2206 + Trametinib; first compound 0.03162 µM) | relative viability (MK-2206 + Trametinib; first compound 0.3162 µM) | relative viability (MK-2206 + Trametinib; first compound 1 µM) | relative viability (Pictilisib + Decitabine; first compound 0.02 µM) | relative viability (Pictilisib + Decitabine; first compound 0.06325 µM) | relative viability (Pictilisib + Decitabine; first compound 0.6325 µM) | relative viability (Pictilisib + Decitabine; first compound 2 µM)
1 | NCI-H647 | 0.479 | 0.542 | 0.38 | 0.542 | 0.195 | 0.172 | 0.108 | 0.0934 | 0.598 | 0.709 | 0.403 | 0.182 | 0.457 | 0.473 | 0.429 | 0.364 | 0.308 | 0.389 | 0.276 | 0.236
2 | NCI-H322M | 0.756 | 0.822 | 0.725 | 0.769 | 0.226 | 0.253 | 0.271 | 0.243 | 0.546 | 0.538 | 0.366 | 0.392 | 0.475 | 0.505 | 0.495 | 0.546 | 0.735 | 0.696 | 0.656 | 0.43
3 | NCI-H2170 | 0.398 | 0.44 | 0.426 | 0.404 | 0.544 | 0.754 | 0.522 | 0.343 | 0.776 | 0.711 | 0.642 | 0.418 | 0.943 | 0.898 | 0.878 | 0.87 | 0.46 | 0.445 | 0.462 | 0.366
4 | BEN | 0.258 | 0.267 | 0.272 | 0.295 | 0.351 | 0.3 | 0.355 | 0.285 | 0.309 | 0.293 | 0.286 | 0.273 | 1.17 | 1.2 | 1.23 | 1.05 | 0.659 | 0.776 | 0.806 | 0.554
5 | NCI-H2009 | 0.474 | 0.464 | 0.436 | 0.4 | 0.307 | 0.298 | 0.159 | 0.129 | 0.656 | 0.583 | 0.319 | 0.188 | 0.252 | 0.299 | 0.248 | 0.254 | 0.443 | 0.406 | 0.412 | 0.329
6 | LC-2-ad | 0.544 | 0.589 | 0.532 | 0.365 | 0.739 | 0.516 | 0.248 | 0.177 | 0.881 | 0.781 | 0.475 | 0.396 | 0.924 | 0.886 | 0.933 | 0.927 | 0.758 | 0.836 | 0.661 | 0.637
7 | NCI-H1437 | 0.297 | 0.265 | 0.306 | 0.301 | 0.445 | 0.386 | 0.255 | 0.178 | 0.855 | 0.685 | 0.619 | 0.289 | 0.577 | 0.51 | 0.44 | 0.403 | 0.499 | 0.534 | 0.536 | 0.438
8 | NCI-H3122 | 0.367 | 0.414 | 0.395 | 0.353 | 0.876 | 0.926 | 0.54 | 0.179 | 0.909 | 0.786 | 0.435 | 0.172 | 0.237 | 0.234 | 0.198 | 0.211 | 0.443 | 0.412 | 0.287 | 0.115
9 | NCI-H727 | 0.607 | 0.71 | 0.533 | 0.592 | 0.319 | 0.38 | 0.292 | 0.342 | 0.741 | 0.649 | 0.548 | 0.333 | 0.402 | 0.382 | 0.388 | 0.37 | 0.651 | 0.979 | 0.699 | 0.781
10 | NCI-H1734 | 0.355 | 0.458 | 0.304 | 0.338 | 0.451 | 0.424 | 0.281 | 0.182 | 0.552 | 0.554 | 0.291 | 0.224 | 0.633 | 0.646 | 0.535 | 0.478 | 0.472 | 0.481 | 0.418 | 0.338
11 | HCC-15 | 0.469 | 0.519 | 0.442 | 0.288 | 0.639 | 0.627 | 0.492 | 0.301 | 0.693 | 0.641 | 0.407 | 0.32 | 0.362 | 0.387 | 0.309 | 0.295 | 0.668 | 0.609 | 0.406 | 0.369
12 | NCI-H2405 | 0.392 | 0.402 | 0.36 | 0.321 | 0.231 | 0.217 | 0.189 | 0.168 | 0.548 | 0.569 | 0.486 | 0.278 | 0.697 | 0.682 | 0.668 | 0.533 | 0.765 | 0.72 | 0.571 | 0.388
13 | NCI-H1993 | 0.496 | 0.491 | 0.562 | 0.568 | 0.508 | 0.467 | 0.483 | 0.58 | 0.514 | 0.47 | 0.592 | 0.646 | 0.61 | 0.422 | 0.43 | 0.419 | 0.692 | 0.483 | 0.459 | 0.458
14 | NCI-H1650 | 0.509 | 0.465 | 0.388 | 0.384 | 0.406 | 0.277 | 0.174 | 0.16 | 0.677 | 0.713 | 0.368 | 0.207 | 0.54 | 0.649 | 0.612 | 0.643 | 0.41 | 0.39 | 0.438 | 0.432
15 | NCI-H460 | 0.489 | 0.613 | 0.521 | 0.45 | 0.531 | 0.545 | 0.205 | 0.0803 | 0.612 | 0.576 | 0.212 | 0.0454 | 0.154 | 0.193 | 0.0937 | 0.0745 | 0.528 | 0.558 | 0.301 | 0.109
16 | NCI-H1651 | 0.362 | 0.302 | 0.336 | 0.365 | 0.35 | 0.387 | 0.358 | 0.201 | 0.643 | 0.584 | 0.565 | 0.291 | 0.797 | 0.849 | 0.853 | 0.819 | 0.473 | 0.603 | 0.505 | 0.413
